Experiment [1] deals with Calcium/calmodulin-dependent protein kinase type IV (Homo sapiens) (UniProt Q16566). The experiment is described as follows: Inhibition of CAMK4 (unknown origin) at 1 uM by Ambit Kinomescan binding assay relative to control; values are per cent of control.
The test system of experiment [2] is Epidermal growth factor receptor (Homo sapiens), P00533 [L858R]. Briefly: Inhibition of EGFR L858R mutant (unknown origin) at 1 uM by Ambit Kinomescan binding assay relative to control.
Experiment [3] deals with Serine/threonine-protein kinase BRSK1 (Homo sapiens) (UniProt Q8TDC3). The experiment is described as follows: Inhibition of BRSK1 (unknown origin) at 1 uM by Ambit Kinomescan binding assay relative to control; values are per cent of control.
Experiment [4] concerns the target Maternal embryonic leucine zipper kinase (Homo sapiens) (UniProt Q14680). Briefly: Inhibition of MELK (unknown origin) at 1 uM by Ambit Kinomescan binding assay relative to control; values are per cent of control.
In experiment [5] the target is Epidermal growth factor receptor (Homo sapiens) (UniProt P00533). The experiment is described as follows: Inhibition of EGFR ACT labeling site harbouring ITDFGLAKLLGAEEK in human A-375 cells at 0.5 uM by KiNativ Profiling analysis relative to control. The class given is cell-based.
The target in experiment [6] is T1, Serine/threonine-protein kinase ULK3 (Homo sapiens) (UniProt Q6PHR2).
T1 sequence (whole entry): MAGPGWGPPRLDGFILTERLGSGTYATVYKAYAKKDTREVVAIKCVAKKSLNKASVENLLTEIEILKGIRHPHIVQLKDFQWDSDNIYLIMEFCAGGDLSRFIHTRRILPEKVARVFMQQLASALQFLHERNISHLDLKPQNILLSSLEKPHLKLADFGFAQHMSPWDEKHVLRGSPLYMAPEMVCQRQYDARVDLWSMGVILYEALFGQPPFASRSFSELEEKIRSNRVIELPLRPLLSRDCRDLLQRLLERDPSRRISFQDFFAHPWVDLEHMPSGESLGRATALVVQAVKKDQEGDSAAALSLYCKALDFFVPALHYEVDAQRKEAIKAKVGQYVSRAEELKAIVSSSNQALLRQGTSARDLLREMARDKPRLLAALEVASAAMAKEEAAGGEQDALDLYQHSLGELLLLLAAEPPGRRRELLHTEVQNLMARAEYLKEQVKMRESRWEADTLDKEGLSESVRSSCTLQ
The experiment is described as follows: Inhibition of ULK3 (unknown origin) at 10 uM by Ambit Kinomescan binding assay relative to control; values are per cent of control.

The target in experiment [7] is Mitogen-activated protein kinase kinase kinase 11 (Homo sapiens) (UniProt Q16584). Briefly: Inhibition of MLK3 K2 labeling site in human Huh-7 cells at 1 uM by KiNativ Profiling analysis relative to control. The class given is cell-based.
Experiment [8] concerns the target Casein kinase I isoform delta (Homo sapiens) (UniProt P48730). Briefly: Inhibition of CK1delta Lys2 labeling site in human A-375 cells at 0.5 uM by KiNativ Profiling analysis relative to control. The class given is cell-based.
The target of experiment [9] is Cyclin-dependent kinase 16 (Homo sapiens) (UniProt Q00536). Briefly: Inhibition of PCTAIRE1 Lys1 labeling site in human A-375 cells at 0.05 uM by KiNativ Profiling analysis relative to control. The format is cell-based.
Experiment [10] concerns the target Casein kinase I isoform gamma-1 (Homo sapiens) (UniProt Q9HCP0). The experiment is described as follows: Inhibition of CSNK1G1 (unknown origin) at 10 uM by Ambit Kinomescan binding assay.
Experiment [11] concerns the target Cyclin-dependent kinase 2 (Homo sapiens) (UniProt P24941). Briefly: Inhibition of CDK2 K2 labeling site in human Huh-7 cells at 10 uM by KiNativ Profiling analysis relative to control. The format is cell-based.
Experiment [12] relates to Serine/threonine-protein kinase B-raf (Homo sapiens), P15056 [V600E]. The experiment is described as follows: Inhibition of BRAF V600E mutant (unknown origin) at 10 uM by Ambit Kinomescan binding assay relative to control.
Experiment [13] addresses Calcium/calmodulin-dependent protein kinase type II subunit delta (Homo sapiens) (UniProt Q13557). Briefly: Inhibition of CAMK2d K1 labeling site harbouring IPTGQEYAAKIINTKK in human Huh-7 cells at 1 uM by KiNativ Profiling analysis relative to control. The format is cell-based.
In experiment [14] the test system is Tyrosine-protein kinase ABL1 (Homo sapiens), P00519 [Y253F]. Briefly: Inhibition of ABL1 Y253F mutant (unknown origin) at 10 uM by Ambit Kinomescan binding assay relative to control.
The target in experiment [15] is Casein kinase II subunit alpha (Homo sapiens) (UniProt P68400). Briefly: Inhibition of CK2a1 in human Huh-7 cells at 10 uM by KiNativ Profiling analysis relative to control. The format is cell-based.
Experiment [16] concerns the target Cyclin-dependent kinase 17 (Homo sapiens) (UniProt Q00537). Briefly: Inhibition of PCTAIRE2 K2 labeling site in human Huh-7 cells at 10 uM by KiNativ Profiling analysis relative to control. The class given is cell-based.
Experiment [17] deals with Ribosomal protein S6 kinase delta-1 (Homo sapiens) (UniProt Q96S38). Briefly: Inhibition of RSKL1 domain1 Protein Kinase Domain labeling site in human Huh-7 cell lysate at 1 uM by KiNativ Profiling analysis relative to control. The format is subcellular.
Experiment [18] deals with Cyclin-dependent kinase 2 (Homo sapiens) (UniProt P24941). Briefly: Inhibition of CDK2 Lys2 labeling site harbouring VLHRDLKPQNLLINTEGAIK in human Huh-7 cell lysate at 1 uM by KiNativ Profiling analysis relative to control. The format is subcellular.
The target of experiment [19] is Rho-associated protein kinase 2 (Homo sapiens) (UniProt O75116). The experiment is described as follows: Inhibition of ROCK2 Lys2 labeling site in human Huh-7 cells at 1 uM by KiNativ Profiling analysis relative to control. The class given is cell-based.
Experiment [20] concerns the target Cyclin-dependent kinase 5 (Homo sapiens) (UniProt Q00535). The experiment is described as follows: Inhibition of CDK5 Lys2 labeling site harbouring NVLHRDLKPQNLLINR in human Huh-7 cell lysate at 1 uM by KiNativ Profiling analysis relative to control. The format is subcellular.
For experiment [21], the target named is 5'-AMP-activated protein kinase catalytic subunit alpha-1 (Homo sapiens) (UniProt Q13131). The experiment is described as follows: Inhibition of AMPKa1 ATP labeling site in human Huh-7 cell lysate at 1 uM by KiNativ Profiling analysis relative to control. The format is subcellular.

Among the data in ChEMBL document CHEMBL5696442, “Discovery of type II inhibitors of TGFβ-activated kinase 1 (TAK1) and mitogen-activated protein kinase kinase kinase kinase 2 (MAP4K2)” (J Med Chem, 2015) are residual activity and inhibition values, retold here.

Calls of active or inactive are those of the source. The rule behind the calls is not given here.

Sequence of Epidermal growth factor receptor (Homo sapiens) (P00533 whole entry): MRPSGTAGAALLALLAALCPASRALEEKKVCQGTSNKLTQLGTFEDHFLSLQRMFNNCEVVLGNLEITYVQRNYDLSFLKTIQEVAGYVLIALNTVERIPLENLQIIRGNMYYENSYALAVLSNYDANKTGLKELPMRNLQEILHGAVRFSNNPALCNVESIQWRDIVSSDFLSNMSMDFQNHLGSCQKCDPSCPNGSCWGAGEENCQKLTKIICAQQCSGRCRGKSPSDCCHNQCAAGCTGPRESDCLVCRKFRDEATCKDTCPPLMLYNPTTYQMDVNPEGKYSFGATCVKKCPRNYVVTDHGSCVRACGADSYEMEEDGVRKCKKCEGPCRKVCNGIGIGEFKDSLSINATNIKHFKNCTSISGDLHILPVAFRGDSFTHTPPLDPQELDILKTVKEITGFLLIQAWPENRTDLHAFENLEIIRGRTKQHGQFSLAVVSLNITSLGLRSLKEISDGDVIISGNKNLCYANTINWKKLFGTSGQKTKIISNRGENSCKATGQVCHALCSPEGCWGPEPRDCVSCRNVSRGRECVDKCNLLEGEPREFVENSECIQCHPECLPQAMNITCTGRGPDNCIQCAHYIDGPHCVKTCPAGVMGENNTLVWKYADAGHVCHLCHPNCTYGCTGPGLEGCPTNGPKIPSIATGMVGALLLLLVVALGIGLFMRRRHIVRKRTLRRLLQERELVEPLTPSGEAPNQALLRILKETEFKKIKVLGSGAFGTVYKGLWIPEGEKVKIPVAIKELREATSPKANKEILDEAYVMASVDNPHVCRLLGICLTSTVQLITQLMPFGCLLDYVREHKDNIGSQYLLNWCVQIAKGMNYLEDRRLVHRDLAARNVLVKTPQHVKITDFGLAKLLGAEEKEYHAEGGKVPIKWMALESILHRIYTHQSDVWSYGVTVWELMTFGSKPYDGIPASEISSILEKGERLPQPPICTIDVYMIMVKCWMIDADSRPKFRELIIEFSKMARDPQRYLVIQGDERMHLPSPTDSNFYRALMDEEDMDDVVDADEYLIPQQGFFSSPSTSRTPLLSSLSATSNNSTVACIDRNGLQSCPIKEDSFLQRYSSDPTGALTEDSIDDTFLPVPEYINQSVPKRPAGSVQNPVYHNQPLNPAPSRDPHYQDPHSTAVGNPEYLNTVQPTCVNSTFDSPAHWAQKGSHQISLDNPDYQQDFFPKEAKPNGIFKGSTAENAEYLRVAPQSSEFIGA
Sequence of Cyclin-dependent kinase 16 (Homo sapiens) (Q00536 whole entry, canonical isoform): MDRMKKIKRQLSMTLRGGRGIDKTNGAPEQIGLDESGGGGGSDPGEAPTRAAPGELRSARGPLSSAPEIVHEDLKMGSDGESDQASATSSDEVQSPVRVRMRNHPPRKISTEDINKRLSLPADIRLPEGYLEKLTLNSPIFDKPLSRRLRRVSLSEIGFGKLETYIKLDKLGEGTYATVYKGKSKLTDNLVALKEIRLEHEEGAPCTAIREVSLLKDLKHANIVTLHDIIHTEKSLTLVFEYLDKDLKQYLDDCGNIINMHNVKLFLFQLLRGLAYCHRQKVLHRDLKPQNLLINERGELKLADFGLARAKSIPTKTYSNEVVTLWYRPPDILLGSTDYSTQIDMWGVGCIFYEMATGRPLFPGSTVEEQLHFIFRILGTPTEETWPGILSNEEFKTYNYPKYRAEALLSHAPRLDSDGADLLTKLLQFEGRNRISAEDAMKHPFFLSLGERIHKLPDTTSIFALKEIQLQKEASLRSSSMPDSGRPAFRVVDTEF
Sequence of Casein kinase I isoform delta (Homo sapiens) (P48730 whole entry, looked up, canonical isoform): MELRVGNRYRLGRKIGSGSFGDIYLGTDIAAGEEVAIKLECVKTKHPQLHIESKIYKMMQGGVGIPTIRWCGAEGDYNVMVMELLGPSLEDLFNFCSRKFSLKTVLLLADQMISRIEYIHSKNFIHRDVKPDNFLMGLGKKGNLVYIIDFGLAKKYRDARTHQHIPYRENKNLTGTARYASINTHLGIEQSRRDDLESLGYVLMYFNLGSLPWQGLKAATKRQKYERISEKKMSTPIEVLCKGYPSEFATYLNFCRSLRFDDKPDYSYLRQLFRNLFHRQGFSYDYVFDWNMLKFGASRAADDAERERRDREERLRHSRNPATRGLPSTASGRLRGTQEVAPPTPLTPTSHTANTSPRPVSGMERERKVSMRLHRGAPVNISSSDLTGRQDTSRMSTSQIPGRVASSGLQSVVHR
Sequence of Maternal embryonic leucine zipper kinase (Homo sapiens) (Q14680 whole entry, looked up): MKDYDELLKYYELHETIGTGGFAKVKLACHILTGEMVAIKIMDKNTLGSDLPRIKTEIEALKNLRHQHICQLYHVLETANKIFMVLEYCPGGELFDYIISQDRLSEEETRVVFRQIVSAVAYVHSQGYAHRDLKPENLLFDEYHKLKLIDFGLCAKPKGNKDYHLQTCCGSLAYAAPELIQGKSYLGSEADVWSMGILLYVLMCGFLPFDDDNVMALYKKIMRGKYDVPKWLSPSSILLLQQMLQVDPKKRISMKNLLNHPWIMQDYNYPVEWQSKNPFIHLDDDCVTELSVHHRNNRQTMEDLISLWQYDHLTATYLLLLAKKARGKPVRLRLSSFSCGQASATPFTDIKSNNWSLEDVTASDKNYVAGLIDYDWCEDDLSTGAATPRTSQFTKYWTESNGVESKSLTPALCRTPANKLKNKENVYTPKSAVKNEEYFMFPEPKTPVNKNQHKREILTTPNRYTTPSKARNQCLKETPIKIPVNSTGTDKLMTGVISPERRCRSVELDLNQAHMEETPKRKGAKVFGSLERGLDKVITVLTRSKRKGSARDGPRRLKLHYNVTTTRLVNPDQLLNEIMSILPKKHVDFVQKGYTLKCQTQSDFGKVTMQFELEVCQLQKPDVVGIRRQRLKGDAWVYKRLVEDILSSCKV
Sequence of Casein kinase I isoform gamma-1 (Homo sapiens) (Q9HCP0 whole entry, looked up, canonical isoform): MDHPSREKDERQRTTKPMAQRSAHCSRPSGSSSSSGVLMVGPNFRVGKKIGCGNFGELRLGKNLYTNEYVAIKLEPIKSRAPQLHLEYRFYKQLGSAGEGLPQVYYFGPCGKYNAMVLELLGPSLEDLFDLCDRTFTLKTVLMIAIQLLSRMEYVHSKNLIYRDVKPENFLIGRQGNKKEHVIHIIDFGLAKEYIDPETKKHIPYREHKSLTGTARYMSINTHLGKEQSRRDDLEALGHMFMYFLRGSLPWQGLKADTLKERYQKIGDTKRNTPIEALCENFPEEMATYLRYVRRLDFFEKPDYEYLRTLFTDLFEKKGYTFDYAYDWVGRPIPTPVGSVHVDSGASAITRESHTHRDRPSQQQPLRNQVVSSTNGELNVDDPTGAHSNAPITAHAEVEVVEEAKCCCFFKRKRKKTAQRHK
Sequence of Calcium/calmodulin-dependent protein kinase type IV (Homo sapiens) (Q16566 whole entry): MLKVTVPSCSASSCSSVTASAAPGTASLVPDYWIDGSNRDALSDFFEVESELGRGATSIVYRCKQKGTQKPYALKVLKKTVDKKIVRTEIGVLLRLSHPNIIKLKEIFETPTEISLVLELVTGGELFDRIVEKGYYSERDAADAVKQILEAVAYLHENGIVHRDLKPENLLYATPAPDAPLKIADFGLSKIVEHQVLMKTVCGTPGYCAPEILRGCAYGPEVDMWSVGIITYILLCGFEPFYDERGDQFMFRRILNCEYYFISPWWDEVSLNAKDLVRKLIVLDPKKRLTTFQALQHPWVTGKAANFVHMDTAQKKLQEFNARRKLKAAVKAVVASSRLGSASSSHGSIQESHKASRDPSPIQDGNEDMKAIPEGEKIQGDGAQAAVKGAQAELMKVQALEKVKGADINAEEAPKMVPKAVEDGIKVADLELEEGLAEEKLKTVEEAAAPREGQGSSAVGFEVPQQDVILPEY
Sequence of Rho-associated protein kinase 2 (Homo sapiens) (O75116 whole entry, looked up): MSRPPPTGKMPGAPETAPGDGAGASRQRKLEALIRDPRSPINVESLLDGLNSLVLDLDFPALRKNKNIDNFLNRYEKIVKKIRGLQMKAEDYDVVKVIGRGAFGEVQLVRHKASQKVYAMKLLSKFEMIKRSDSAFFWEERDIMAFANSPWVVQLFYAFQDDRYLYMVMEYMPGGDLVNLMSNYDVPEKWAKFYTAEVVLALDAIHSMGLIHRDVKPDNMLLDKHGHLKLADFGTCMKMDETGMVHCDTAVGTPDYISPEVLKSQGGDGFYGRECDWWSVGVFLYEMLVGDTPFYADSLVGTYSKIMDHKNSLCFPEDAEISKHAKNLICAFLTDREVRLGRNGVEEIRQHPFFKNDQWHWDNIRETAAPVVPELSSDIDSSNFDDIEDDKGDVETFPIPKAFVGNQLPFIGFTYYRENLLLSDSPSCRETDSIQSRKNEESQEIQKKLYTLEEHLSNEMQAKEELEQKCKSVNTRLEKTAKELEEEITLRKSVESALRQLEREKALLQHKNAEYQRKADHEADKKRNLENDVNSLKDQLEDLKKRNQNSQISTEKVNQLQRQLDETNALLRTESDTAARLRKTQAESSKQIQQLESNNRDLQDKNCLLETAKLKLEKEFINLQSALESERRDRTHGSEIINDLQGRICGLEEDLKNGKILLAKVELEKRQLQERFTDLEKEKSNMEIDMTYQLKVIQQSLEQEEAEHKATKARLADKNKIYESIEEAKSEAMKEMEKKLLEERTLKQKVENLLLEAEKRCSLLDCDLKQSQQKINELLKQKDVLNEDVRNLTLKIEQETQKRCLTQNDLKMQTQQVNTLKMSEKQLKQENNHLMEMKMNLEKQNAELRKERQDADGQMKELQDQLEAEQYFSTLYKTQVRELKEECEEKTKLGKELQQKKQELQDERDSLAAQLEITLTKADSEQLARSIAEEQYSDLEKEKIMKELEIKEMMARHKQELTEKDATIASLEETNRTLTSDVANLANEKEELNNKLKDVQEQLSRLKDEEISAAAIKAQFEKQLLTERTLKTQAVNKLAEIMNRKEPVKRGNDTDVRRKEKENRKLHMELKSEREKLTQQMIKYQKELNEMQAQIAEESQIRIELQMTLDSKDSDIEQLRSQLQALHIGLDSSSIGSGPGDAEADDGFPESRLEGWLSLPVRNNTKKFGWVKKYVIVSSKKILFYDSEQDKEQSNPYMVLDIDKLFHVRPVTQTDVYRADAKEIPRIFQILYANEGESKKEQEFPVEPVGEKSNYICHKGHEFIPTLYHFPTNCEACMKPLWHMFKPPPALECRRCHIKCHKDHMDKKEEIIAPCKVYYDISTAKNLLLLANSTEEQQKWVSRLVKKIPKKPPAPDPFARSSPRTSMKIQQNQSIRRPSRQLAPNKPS

In general, residual activity refers to what remains of the control signal, in per cent. A word on the inhibition: it is the change of the read-out against control, counted positive when it falls. Take `CCN1CCN(Cc2ccc(NC(=O)c3ccc(C)c(/C=C/c4cnc5[nH]ccc5c4OC)c3)cc2C(F)(F)F)CC1`: the results for the residual activity in experiment [1], in [3] and in [4] were 100%, 83% and 72%, respectively. For the same compound, the inhibition in experiment [2] came out at 4%.

As to `CCN1CCN(Cc2ccc(NC(=O)c3ccc(C)c(Oc4ccnc5[nH]ccc45)c3)cc2C(F)(F)F)CC1`, the inhibition is 0.7% in [5]; -1.6% in [7]; 3.3% in experiment [8]; 31.9% in experiment [9]; 16.2% in experiment [11]; 4% in [12]. Further, the inhibition was 4.4% in [13], 1.1% in [14], 12.3% in experiment [15] and 41.7% in experiment [16]. The compound also came in with a residual activity in experiment [6] of 0.1%. The inhibition entry in experiment [10] is “inactive”.

For `CNc1cc(Oc2cc(C(=O)Nc3cc(N4CCN(C)CC4)cc(C(F)(F)F)c3)ccc2C)ncn1`, the inhibition in experiment [17] is 15.7%; in experiment [18], 16.1%; in [19], -1%; in [20] it was 22.5%; in [21] it was 11.2%.
